According to US20220276186A1, “OPTIMIZED ANALYTE DERIVATIZATION FOR SYNERGISTIC APPLICATION WITH CRYSTAL SPONGE METHOD” (MERCK PATENT GMBH, priority 2019, published 2022):

Experiment: solubility of the analyte in chloroform (step i of Procedure 1, crystalline sponge method)
Assay type: physicochemical
Method: Procedure 1—absorption of an organic molecule into a single porous crystal. Specifically, procedure 1 describes absorption of an organic molecule into a crystalline sponge comprising [(ZnCl2)3(tpt)2.(cyclohexane)x] (tpt=1,3,5-tris(4-pyridyl)triazine. The organic molecule is first dissolved in trichloro methane (chloroform), i.e., the sample comprises the organic molecule in trichloro methane. The procedure comprises the steps: • i—1 mg of organic molecule is dissolved in 1 ml of chloroform at room temperature. (Proportionally lower quantities can be used, depending on the available amount of analyte.) • ii—A single crystal of [(ZnCl2)3(tpt)2.(cyclohexane)x] (tpt=1,3,5-tris(4-pyridyl)triazine) crystal sponge of about 100 μm diameter, which has been visually inspected under a microscope and found to be without twinning or visible cracks, is placed in a septum screw-top glass vial with conically pointed bottom, submerged in 50 μl of cyclohexane. • iii—4.5 μl of the solution obtained in step (i) (containing 4.5 μg of analyte) is added to the crystalline sponge in cyclohexane as described in step (ii). • iv—The screw-top is closed, and the septum is pierced with a medical-type syringe needle, which may be left in that position to enable slow solvent evaporation. This assembly is incubated at 50° C. for 24 or more hours. […]

Row | amount of analyte that could be dissolved in 1 ml chloroform (20° C.) | solution of analyte in chloroform that could be prepared without difficulty (Procedure 1 step i (room temperature)) [mg in 1 ml] | Structure (SMILES)
1 | about 0.005 mg in 1 ml |  | O=c1c(-c2ccc(O)cc2)coc2cc(O)ccc12 [4′,7-dihydroxy isoflavone]
2 |  | ≥ 1 | COc1ccc(-c2coc3cc(OC)ccc3c2=O)cc1 [4′,7-dimethoxy isoflavone]
